Assay results as given in patent publication US20060148804A1, “Pde4 inhibitors for the treatment of neoplasms of lymphoid cells” (priority 2003, published 2006).

How the values were obtained:
[1] = system: chronic lymphocytic leukemia (CLL) B-lymphocytes; settings: in vitro; cited from earlier work
[2] = system: NB4 cells; assay: Intracellular cAMP and cAMP-dependent protein kinase (PKA) amounts in NB4 cells; type: cell-based; settings: versus basal conditions
From the text: (§1) In NB4 cells, PICLAMILAST accelerates the process of morphological granulocytic maturation and enhances the ATRA-dependent induction of specific differentiation markers such as NBT-reductase (NBTR) as well as CD11b. PICLAMILAST not only enhances, but also accelerates the process of granulocytic maturation set in motion by ATRA in acute myelogenous leukemia cells, reducing the time necessary to expose cells to ATRA to obtain maximal differentiation. […] PICLAMILAST exerts differential effects on a number of transcriptional factors involved in the process of leukemic cell maturation triggered by ATRA. […] The PICLAMILAST dependent enhancement of the ATRA-dependent induction of NBT-R is suppressed by the cAMP antagonist, Rp-8Br-cAMP, and the specific PKA inhibitor H-89. […] This phenomenon is more evident when cells are treated with combinations of ATRA and the PDE4 inhibitor. […] This altogether could represent a clinically relevant finding as it may represent a useful strategy to increase the therapeutic index of ATRA by decreasing its local and systemic toxicity.

[3] = system: NB4 blasts; assay: ATRA induced granulocytic maturation and growth inhibition of NB4 blasts; type: cell-based; settings: for PICLAMILAST dependent enhancement of the ATRA-dependent induction of NBT-R: added to PICLAMILAST and ATRA
From the text: as §1

[4] = system: NB4 cells; assay: Gene expression in NB4 / myeloid cells; type: cell-based
From the text: as §1

[5] = system: HL-60 blasts; assay: ATRA induced granulocytic maturation and growth inhibition of HL-60 blasts; type: cell-based; settings: together with ATRA
[6] = system: U937 blasts; assay: ATRA induced granulocytic maturation and growth inhibition of U937 blasts; type: cell-based; settings: together with ATRA
[7] = system: retinoic acid receptor, RARalpha; assay: Ligand-dependent transcriptional activity and phosphorylation of RARalpha; type: cell-based
From the text: as §1

[8] = system: cEBPalpha; assay: Amounts of cEBPalpha in leukemic cell maturation triggered by ATRA; type: cell-based; settings: in combination with the retinoid
From the text: as §1

[9] = system: STAT1; assay: Amounts and tyrosine phosphorylation of STAT1; type: cell-based; settings: in combination with the retinoid
From the text: as §1

[10] = system: cEBPepsilon; assay: Upregulation of cEBPepsilon; type: cell-based; settings: in combination with the retinoid
From the text: as §1

[11] = system: CREBP transcriptional factor; assay: Phosphorylation state of CREBP in NB4 cells; type: cell-based
From the text: as §1

Cn1c(=O)c2[nH]cnc2n(C)c1=O [Theophylline]
apoptosis in CLL B-lymphocytes [1]: induce apoptosis

CC1=C(/C=C/C(C)=C/C=C/C(C)=C/C(=O)O)C(C)(C)CCC1 [ATRA, all trans retinoic acid]
amounts of cAMP-dependent protein kinase (PKA) [2]: Neither basal nor PICLAMILAST-induced levels of cAMP and PKA are modulated
amounts of intracellular cAMP [2]: Neither basal nor PICLAMILAST-induced levels of cAMP and PKA are modulated

O=S(=O)(NCCNC/C=C/c1ccc(Br)cc1)c1cccc2cnccc12 [H-89]
PICLAMILAST dependent enhancement of the ATRA-dependent induction of NBT-R [3]: suppressed
ATRA-dependent genes whose expression is super-induced by the PDE4 inhibitor ([4]; added to PICLAMILAST and ATRA): does not have the same effect on all

Nc1ncnc2c1nc(Br)n2C1OC2COP(O)(=S)OC2C1O (stereo not drawn) [Rp-8Br-cAMP]
PICLAMILAST dependent enhancement of the ATRA-dependent induction of NBT-R [3]: suppressed

COc1ccc(C(=O)Nc2c(Cl)cncc2Cl)cc1OC1CCCC1 [PICLAMILAST, N-(3,5-dichloropyrid-4-yl)-3-cyclopentyloxy-4-methoxybenzamide]
growth inhibitory and cyto-differentiating activities of all trans retinoic acid (ATRA) ([3]; NB4 blasts, together with ATRA): potentiates
process of morphological granulocytic maturation ([3]; NB4 cells): accelerates
ATRA-dependent induction of CD11b ([3]; NB4 cells, with ATRA): enhances
ATRA-dependent induction of NBT-reductase (NBTR) ([3]; NB4 cells, with ATRA): enhances
time necessary to expose cells to ATRA to obtain maximal differentiation ([3]; acute myelogenous leukemia cells): reducing
growth inhibitory effect of the retinoid ([3]; acute myelogenous leukemia cells, with ATRA): increases the growth inhibitory effect of the retinoid in an additive fashion
growth inhibitory and cyto-differentiating activities of all trans retinoic acid (ATRA) [5]: potentiates
growth inhibitory and cyto-differentiating activities of all trans retinoic acid (ATRA) [6]: potentiates
amounts of cAMP-dependent protein kinase (PKA) [2]: significant increase
amounts of intracellular cAMP [2]: significant increase
PKA-dependent phosphorylation of RARalpha [7]: activated
ligand-dependent transcriptional activity of RARalpha ([7]; in combination with the retinoid): enhances
amounts of cEBPalpha [8]: causes an increase
amounts and activation state (tyrosine phosphorylation) of STAT1 [9]: causes an increase
upregulation of cEBPepsilon [10]: no significant effect
phosphorylation state of the cAMP dependent CREBP transcriptional factor [11]: down-regulatory action
expression of cAMP- and CREBP-dependent genes, such as vinculin ([4]; NB4 cells): does not modulate
expression of numerous ATRA-dependent genes, including cathepsin D and syaloadhesin ([4]; with ATRA): enhancing action
